Assay results published in patent US6291640A, “Peptidomimetic inhibitors of the human cytomegalovirus protease” (Boehringer Ingelheim Ltd., priority 1998, dated 2001).

Biological target: T1, porcine pancreatic elastase (PPE) (Sus scrofa, UniProt P00772)
T1 construct: porcine pancreas elastase #1027891 lot 83260521-23; purchased Boehringer Mannheim #1027891
Test: Specificity assay, porcine pancreatic elastase
Assay type: biochemical
Experimental: The specificity of the compounds was determined against a variety of serine proteases (Human leukocyte and porcine pancreatic elastases (HLE & PPE), bovine pancreas α-chymotrypsin) and one cysteine protease (Human liver cathepsin B). In all cases a 96-well plate format protocol using a calorimetric p-nitroanilide (pNA) substrate specific for each enzyme was used. Each assay included a 1 hr pre-incubation enzyme-inhibitor at 30° C. followed by addition of substrate and hydrolysis to ≈30% conversion as measured by scanning on a UV Thermomax microplate reader. Substrate concentrations were kept as low as possible compared to KM to reduce substrate competition. […] The final conditions for each assay were as followed: 50 mM Tris/HCl pH 8, 0.5 M Na2 SO4, 50 mM NaCl, 0.1 mM EDTA, 3% DMSO, 0.01% Tween-20 with [100 μM Succ-AAPF-pNA and 250 pM α-chymotrypsin], [133 μM Succ-AAA-pNA and 8 nM porcine elastase], or [133 μM Succ-AAV-pNA and 8 nM leukocyte elastase]. 100 mM NaH2 PO4 pH 6, 0.1 mM EDTA, 3% DMSO, 1 mM TCEP, 0.01% Tween-20, 30 μM Z-FR-pNA and 5 nM cathepsin B (the stock enzyme was activated in buffer containing 20 mM TCEP before use).

T1 sequence (P00772 27-266): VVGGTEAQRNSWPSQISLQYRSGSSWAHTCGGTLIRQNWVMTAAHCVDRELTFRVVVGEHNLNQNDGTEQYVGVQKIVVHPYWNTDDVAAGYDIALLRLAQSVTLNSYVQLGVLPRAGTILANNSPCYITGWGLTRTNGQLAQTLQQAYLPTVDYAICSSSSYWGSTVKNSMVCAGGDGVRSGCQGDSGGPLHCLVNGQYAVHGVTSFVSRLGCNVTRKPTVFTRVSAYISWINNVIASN

Q: For `CC(NC(=O)[C@H](CC(=O)N(C)C)NC(=O)[C@@H](NC(=O)CC(C)(C)C)C(C)(C)C)C(=O)c1nc2ncccc2o1` (stereo partly drawn) [Compound 81, N4,N4-dimethyl-N1-(1-methyl-2-[1,3]oxazolo[4,5-b]pyridin-2-yl-2-oxoethyl)-(2S)-2-{[(1S)-2,2-dimethyl-1-(neopentylcarboxamido)propyl]carboxamido} butanediamide], which “inhibition of PPE” value is on record?
A: not an inhibitor of PPE
